Results on ten compounds are retold here after US6313153A, “Compositions and methods for treating nephritis and inhibiting TGF -β related conditions using pyridylacrylamide derivatives” (Tsumura & Co., priority 1997, dated 2001).

For the assay, the system named is anti-GBM nephritic mice. Kind of assay: anti-GBM nephritic mice: proteinuria, serum cholesterol, blood urea nitrogen and serum creatinine.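 For Proteinuria 10th day: minus not effective plus trend double p<0.05 triple p<0.01 quadruple p<0.001 improvement vs control.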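 For Proteinuria 5th day: minus not effective plus trend double p<0.05 triple p<0.01 quadruple p<0.001 improvement vs control.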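 For Serum Parameter BUN (blood urea nitrogen): minus not effective plus trend double p<0.05 triple p<0.01 quadruple p<0.001 improvement vs control.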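 For Serum Parameter S-Ch (serum cholesterol): minus not effective plus trend double p<0.05 triple p<0.01 quadruple p<0.001 improvement vs control.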 As to conditions: for Total Evaluation: 3 × (number of + in proteinuria) + (number of + in serum parameter); for Proteinuria 5th day: 5th day from intravenous injection of anti-GBM serum; for Proteinuria 5th day / Proteinuria 10th day / Serum Parameter BUN (blood urea nitrogen) / Serum Parameter S-Ch (serum cholesterol) / Serum Parameter S-Cr (serum creatinine): oral; for Proteinuria 10th day: 10th day from intravenous injection of anti-GBM serum; for Serum Parameter BUN (blood urea nitrogen) / Serum Parameter S-Ch (serum cholesterol) / Serum Parameter S-Cr (serum creatinine): 11th day. Type of assay: in vivo, BALB/c mice.

Procedure: BALB/c mice (5 weeks old, purchased from Nippon Charles Liver) were quarantined and adapted for about 1 week before subjecting to experiments. These mice were divided into several groups for the experiments so that average body weights and standard deviations were almost identical in all groups. Mouse anti-GBM (glomerular basement membrane) nephritis was caused by immunizing the mice with rabbit γ-globulin (1 mg) with Freund's complete adjuvant and intravenously injecting rabbit anti-mouse GBM serum on the fifth day from the immunization. Each compound tested was forcedly orally administered via an oral sonde almost simultaneously with the intravenous injection of the anti-GBM serum. On the 5th and 10th days from the intravenous injection, urine was taken by a plastic metabolic cage and proteinuria was measured (Ohtsuka Tonein TP2). On the 11th day, blood was taken by cutting the carotid and serum cholesterol (S--Ch), blood urea nitrogen (BUN) and serum creatinine (S--Cr) were measured by Toshiba TBA-380 autoanalyzer.

As to `COc1ccc(CCN(C)C(=O)/C=C/c2cccnc2)c(OC)c1` [Compound 14], the “Total Evaluation” value is listed as 7, the “Proteinuria 5th day” value is recorded as “-”, the “Proteinuria 10th day” value is on record as “+” and the “Serum Parameter BUN (blood urea nitrogen)” value (“Serum Parameter BUN” for short) was “+”. Further, the “Serum Parameter S-Ch (serum cholesterol)” value was “+” and the “Serum Parameter S-Cr (serum creatinine)” value was “-”.

For `O=C(/C=C/c1cccnc1)NCCc1ccc(O)c(O)c1` [Compound 91], the “Total Evaluation” value turned out to be 14, the “Proteinuria 5th day” value is “+”, the “Proteinuria 10th day” value is “+++” and the “Serum Parameter BUN” value is “-”. For the same compound, the “Serum Parameter S-Ch (serum cholesterol)” value is given as “++” and the “Serum Parameter S-Cr (serum creatinine)” value is given as “-”.

For `COc1ccc(OC)c(CCNC(=O)/C=C/c2cccnc2)c1` [Compound 39], the “Total Evaluation” value is 21, the “Proteinuria 5th day” value is “++”, the “Proteinuria 10th day” value is given as “+++” and the “Serum Parameter BUN” value is reported as “++”. For the same compound, the “Serum Parameter S-Ch (serum cholesterol)” value is listed as “++” and the “Serum Parameter S-Cr (serum creatinine)” value was “++”.

For the compound `O=C(/C=C/c1cccnc1)NCCc1cccc(O)c1` [Compound 75], the “Total Evaluation” value is recorded as 19, the “Proteinuria 5th day” value is given as “++”, the “Proteinuria 10th day” value was “+++” and the “Serum Parameter BUN” value is on record as “+”. The “Serum Parameter S-Ch (serum cholesterol)” value is “++” and the “Serum Parameter S-Cr (serum creatinine)” value is “+”.

Take `COc1cc(C(O)CN(C)C(=O)/C=C/c2cccnc2)ccc1O` (stereo not drawn) [Compound 158, (E)-N-[2-hydroxy-2-(3-methoxy-4-hydroxyphenyl)ethyl]-N-methyl-3-(3-pyridyl)-2-propenoic acid amide]: the “Total Evaluation” value was 7, the “Proteinuria 5th day” value is “+”, the “Proteinuria 10th day” value is recorded as “+” and the “Serum Parameter BUN” value is “-”. For the same compound, the “Serum Parameter S-Ch (serum cholesterol)” value is “+” and the “Serum Parameter S-Cr (serum creatinine)” value is “-”.

For the compound `COc1ccc(OC)c(CCN(C)C(=O)/C=C/c2cccnc2)c1` [Compound 15], the “Total Evaluation” value turned out to be 11, the “Proteinuria 5th day” value is “+”, the “Proteinuria 10th day” value is “+” and the “Serum Parameter BUN” value is given as “+”. For the same compound, the “Serum Parameter S-Ch (serum cholesterol)” value is “+” and the “Serum Parameter S-Cr (serum creatinine)” value is reported as “+”.

For the compound `O=C(/C=C/c1cccnc1)NCc1cccc(O)c1` [Compound 90], the “Total Evaluation” value came out at 17, the “Proteinuria 5th day” value is “++”, the “Proteinuria 10th day” value was “+++” and the “Serum Parameter BUN” value is reported as “+”. For the same compound, the “Serum Parameter S-Ch (serum cholesterol)” value was “-” and the “Serum Parameter S-Cr (serum creatinine)” value is given as “+”.

For `CN(CCc1ccc(O)cc1)C(=O)/C=C/c1cccnc1` [Compound 87], the “Total Evaluation” value stood at 19, the “Proteinuria 5th day” value was “+++”, the “Proteinuria 10th day” value is “+” and the “Serum Parameter BUN” value is “+++”. Besides, the “Serum Parameter S-Ch (serum cholesterol)” value is “++” and the “Serum Parameter S-Cr (serum creatinine)” value is listed as “++”.

As to `O=C(/C=C/c1cccnc1)NCCc1ccccc1O` [Compound 70, (E)-N-(2-hydroxyphenethyl)-3-(3-pyridyl)-2-propenoic acid amide], the “Total Evaluation” value was 22, the “Proteinuria 5th day” value is listed as “++”, the “Proteinuria 10th day” value was “+++” and the “Serum Parameter BUN” value is recorded as “++”. Also, the “Serum Parameter S-Ch (serum cholesterol)” value is given as “+++” and the “Serum Parameter S-Cr (serum creatinine)” value was “++”.

Regarding `CCNC(=O)Oc1cccc(CCNC(=O)/C=C/c2cccnc2)c1` [Compound 127, (E)-N-[3-[(ethylcarbamoyl)oxy]-phenethyl]-3-(3-pyridyl)-2-propenoic acid amide], the “Total Evaluation” value was 17, the “Proteinuria 5th day” value is listed as “+++”, the “Proteinuria 10th day” value was “++” and the “Serum Parameter BUN” value is listed as “-”. The “Serum Parameter S-Ch (serum cholesterol)” value was “++” and the “Serum Parameter S-Cr (serum creatinine)” value is reported as “-”.
